Test results: ChEMBL document CHEMBL2151015, “Discovery of a potent, selective, and orally bioavailable acidic 11β-hydroxysteroid dehydrogenase type 1 (11β-HSD1) inhibitor: discovery of 2-[(3S)-1-[5-(cyclohexylcarbamoyl)-6-propylsulfanylpyridin-2-yl]-3-piperidyl]acetic acid (AZD4017)” (J Med Chem, 2012)
Converted amounts (≈) assume the structure as drawn. The source made the active and inactive calls. The rule behind the calls is not given here.

Tests used:
[1] = Oral bioavailability in rat at 1 to 3 mg/kg; type: ADME, organism-based; details: in vivo
[2] = Half life in mouse at 1 to 3 mg/kg, iv; type: ADME, organism-based; design: dose 1-3 mg/kg, route intravenous; details: in vivo
[3] = Half life in mouse at 1 to 3 mg/kg, po; type: ADME, organism-based; design: dose 1-3 mg/kg, route oral; details: in vivo
[4] = Inhibition of N-terminal His6-tagged full length cynomolgus monkey 11betaHSD1 expressed in baculovirus infected cells using cortisone as substrate after 25 mins by HTRF assay; design: species or system Macaca fascicularis
[5] = target: Type-2 angiotensin II receptor (Homo sapiens) (UniProt P50052); assay: Activity at AT2 receptor
Chain of Type-2 angiotensin II receptor (Homo sapiens) (P50052 whole entry): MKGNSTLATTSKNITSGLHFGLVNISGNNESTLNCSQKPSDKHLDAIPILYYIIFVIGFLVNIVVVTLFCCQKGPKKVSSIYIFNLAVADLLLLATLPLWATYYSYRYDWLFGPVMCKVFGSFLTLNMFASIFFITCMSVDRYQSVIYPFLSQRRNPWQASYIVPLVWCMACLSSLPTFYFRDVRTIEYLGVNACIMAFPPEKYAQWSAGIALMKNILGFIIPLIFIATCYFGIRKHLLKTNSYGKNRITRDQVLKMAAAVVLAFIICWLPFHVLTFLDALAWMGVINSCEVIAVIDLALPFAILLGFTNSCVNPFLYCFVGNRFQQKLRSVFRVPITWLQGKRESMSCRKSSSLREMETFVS

[6] = tested on: Plasma; assay: Drug uptake in rat plasma assessed as covalent binding measured at 40 uCi/kg, po at 24 hrs; type: ADME, organism-based; details: in vivo
[7] = Aqueous solubility of the compound after 24 hrs by LC-UV analysis at pH 7.4; type: physicochemical; details: aqueous medium
[8] = target: CYP2D6 (Homo sapiens, UniProt P10635); assay: Inhibition of CYP2D6 at 10 uM; type: ADME
[9] = target: 11-beta-hydroxysteroid dehydrogenase type 2 (Homo sapiens, UniProt P80365); assay: Inhibition of recombinant 11betaHSD2 using cortisol as substrate after 40 mins by fluorescence spectrophotometry
Chain of 11-beta-hydroxysteroid dehydrogenase type 2 (P80365 whole entry): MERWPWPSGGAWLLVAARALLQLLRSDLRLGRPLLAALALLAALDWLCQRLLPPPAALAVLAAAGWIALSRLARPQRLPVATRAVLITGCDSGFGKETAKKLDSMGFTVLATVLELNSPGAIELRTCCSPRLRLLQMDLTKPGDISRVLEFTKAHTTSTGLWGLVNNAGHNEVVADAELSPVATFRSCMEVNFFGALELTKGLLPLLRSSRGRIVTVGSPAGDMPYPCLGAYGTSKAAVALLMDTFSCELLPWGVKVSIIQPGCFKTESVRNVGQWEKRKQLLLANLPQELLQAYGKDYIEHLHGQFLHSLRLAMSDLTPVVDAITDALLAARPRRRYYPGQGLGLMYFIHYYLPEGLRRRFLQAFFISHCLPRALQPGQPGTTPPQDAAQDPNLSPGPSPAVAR

[10] = tested on: Hepatocyte; assay: Metabolic stability in human hepatocytes assessed as compound remaining; type: ADME, cell-based
[11] = Apparent permeability from basal to apical side of MDCK cells at 10 uM; type: ADME, cell-based, Canis lupus familiaris; details: dog
[12] = Plasma clearance in dog at 1 to 3 mg/kg; type: ADME, organism-based, Canis lupus familiaris; design: dose 1-3 mg/kg
[13] = target: CYP3A4 (Homo sapiens, UniProt P08684); assay: Inhibition of CYP3A4 at 10 uM; type: ADME
Chain of CYP3A4 (P08684 whole entry): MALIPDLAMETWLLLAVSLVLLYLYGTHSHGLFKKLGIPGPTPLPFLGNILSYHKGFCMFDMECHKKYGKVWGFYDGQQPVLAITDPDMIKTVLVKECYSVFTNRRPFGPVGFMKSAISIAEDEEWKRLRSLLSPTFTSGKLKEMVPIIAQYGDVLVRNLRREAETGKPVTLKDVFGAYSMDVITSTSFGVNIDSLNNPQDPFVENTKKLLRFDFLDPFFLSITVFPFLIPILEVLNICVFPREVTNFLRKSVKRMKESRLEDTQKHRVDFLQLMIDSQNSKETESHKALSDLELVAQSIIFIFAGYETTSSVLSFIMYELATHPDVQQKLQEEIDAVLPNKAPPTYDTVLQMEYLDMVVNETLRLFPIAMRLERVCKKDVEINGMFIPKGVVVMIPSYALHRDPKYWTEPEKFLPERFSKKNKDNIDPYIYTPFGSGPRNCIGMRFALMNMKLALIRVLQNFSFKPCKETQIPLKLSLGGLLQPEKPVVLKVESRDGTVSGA

[14] = in vivo; details: rat
[15] = target: Glucocorticoid receptor (Homo sapiens) (UniProt P04150); assay: Activity at glucocorticoid receptor
[16] = Half life in dog at 1 to 3 mg/kg, po; type: ADME, organism-based, Canis lupus familiaris; design: dose 1-3 mg/kg, route oral; details: in vivo
[17] = Octanol-buffer partition coefficient, log D of the compound after 30 mins by shake flask method at pH 7.4; details: octanol/buffer
[18] = Plasma clearance in mouse at 1 to 3 mg/kg; type: ADME, organism-based; design: dose 1-3 mg/kg
[19] = target: 11-beta-hydroxysteroid dehydrogenase 1 (Rattus norvegicus, UniProt P16232); assay: Inhibition of N-terminal His6-tagged full length rat 11betaHSD1 expressed in baculovirus infected cells using cortisone as substrate after 25 mins by HTRF assay
Chain of 11-beta-hydroxysteroid dehydrogenase 1 (Rattus norvegicus, UniProt P16232) (P16232 whole entry): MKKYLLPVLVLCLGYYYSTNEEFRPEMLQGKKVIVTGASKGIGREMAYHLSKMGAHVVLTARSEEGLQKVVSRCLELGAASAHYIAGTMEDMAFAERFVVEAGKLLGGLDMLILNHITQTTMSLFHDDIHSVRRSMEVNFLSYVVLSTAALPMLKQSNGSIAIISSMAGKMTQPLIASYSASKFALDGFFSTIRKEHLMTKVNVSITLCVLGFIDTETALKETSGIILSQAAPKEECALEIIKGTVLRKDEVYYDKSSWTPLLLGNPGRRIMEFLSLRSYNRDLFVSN

[20] = Oral bioavailability in mouse at 1 to 3 mg/kg; type: ADME, organism-based; details: in vivo
[21] = Fraction unbound in dog plasma after 18 to 19 hrs by equilibrium dialysis; type: ADME, cell-free, Canis lupus familiaris
[22] = Apparent permeability from apical to basal side of MDCK cells at 10 uM; type: ADME, cell-based, Canis lupus familiaris; details: dog
[23] = target: 11-beta-hydroxysteroid dehydrogenase 1 (Mus musculus, UniProt P50172); assay: Inhibition of N-terminal His6-tagged full length mouse 11betaHSD1 expressed in baculovirus infected cells using cortisone as substrate after 25 mins by HTRF assay
Chain of 11-beta-hydroxysteroid dehydrogenase 1 (Mus musculus, UniProt P50172) (P50172 whole entry): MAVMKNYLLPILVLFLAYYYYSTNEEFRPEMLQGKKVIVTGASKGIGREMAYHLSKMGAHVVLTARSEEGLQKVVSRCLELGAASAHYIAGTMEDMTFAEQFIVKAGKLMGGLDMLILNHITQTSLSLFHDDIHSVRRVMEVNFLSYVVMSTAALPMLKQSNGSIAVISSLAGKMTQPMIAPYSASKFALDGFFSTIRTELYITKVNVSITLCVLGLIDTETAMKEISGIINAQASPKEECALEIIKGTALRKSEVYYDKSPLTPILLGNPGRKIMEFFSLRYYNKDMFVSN

[24] = Oral bioavailability in rat; type: ADME, organism-based; details: in vivo
[25] = Induction in cytochrome P450 in rat up to 1 month; type: ADME
[26] = tested on: Salmonella typhimurium; assay: Mutagenicity against Salmonella typhimurium by Ames test; type: toxicity, organism-based; details: salmonella enterica subsp. enterica serovar typhimurium
[27] = target: 17-beta-hydroxysteroid dehydrogenase type 3 (Homo sapiens, UniProt P37058); assay: Inhibition of recombinant 17betaHSD3 using [3H]androstenedione as substrate after 90 mins by flow scintillation analysis
Chain of 17-beta-hydroxysteroid dehydrogenase type 3 (P37058 whole entry): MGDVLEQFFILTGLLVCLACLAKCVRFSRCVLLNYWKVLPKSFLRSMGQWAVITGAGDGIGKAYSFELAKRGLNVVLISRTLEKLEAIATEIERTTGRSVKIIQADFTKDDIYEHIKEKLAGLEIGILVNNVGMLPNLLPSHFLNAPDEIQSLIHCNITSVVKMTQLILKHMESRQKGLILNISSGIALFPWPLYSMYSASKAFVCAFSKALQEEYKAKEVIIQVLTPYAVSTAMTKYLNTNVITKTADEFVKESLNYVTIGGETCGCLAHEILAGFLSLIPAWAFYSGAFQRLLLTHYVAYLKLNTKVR

[28] = tested on: Mus musculus; assay: Ex-vivo inhibition of 11betaHSD1 in C57Bl6J mouse epididymal adipose tissue using [3H]cortisone as substrate at 1500 mg/kg, po after 1 hr by flow scintillation analysis; type: functional
[29] = target: CYP2C19 (Homo sapiens, UniProt P33261); assay: Inhibition of CYP2C19 at 10 uM; type: ADME
Chain of CYP2C19 (P33261 whole entry): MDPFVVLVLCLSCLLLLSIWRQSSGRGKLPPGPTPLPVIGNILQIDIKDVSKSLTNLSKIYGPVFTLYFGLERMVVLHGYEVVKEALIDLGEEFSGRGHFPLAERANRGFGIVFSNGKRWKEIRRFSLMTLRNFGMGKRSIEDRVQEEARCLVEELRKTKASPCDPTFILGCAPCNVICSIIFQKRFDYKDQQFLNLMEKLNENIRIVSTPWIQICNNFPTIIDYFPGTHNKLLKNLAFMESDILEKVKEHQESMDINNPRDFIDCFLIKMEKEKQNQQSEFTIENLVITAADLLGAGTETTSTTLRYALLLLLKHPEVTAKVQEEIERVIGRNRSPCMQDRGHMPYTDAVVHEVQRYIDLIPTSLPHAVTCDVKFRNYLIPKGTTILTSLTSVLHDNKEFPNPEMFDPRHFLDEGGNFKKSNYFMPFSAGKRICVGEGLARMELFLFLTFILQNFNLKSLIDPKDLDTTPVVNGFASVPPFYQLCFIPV

[30] = Oral bioavailability in dog at 1 to 3 mg/kg; type: ADME, organism-based, Canis lupus familiaris; details: in vivo
[31] = Fraction unbound in rat plasma after 18 to 19 hrs by equilibrium dialysis; type: ADME, cell-free
[32] = tested on: Liver; assay: Drug uptake in rat liver assessed as covalent binding measured per mg protein at 40 uCi/kg, po at 24 hrs; type: ADME, organism-based; details: in vivo
[33] = target: CYP2C9 (Homo sapiens, UniProt P11712); assay: Inhibition of CYP2C9 at 10 uM; type: ADME
Chain of CYP2C9 (P11712 whole entry): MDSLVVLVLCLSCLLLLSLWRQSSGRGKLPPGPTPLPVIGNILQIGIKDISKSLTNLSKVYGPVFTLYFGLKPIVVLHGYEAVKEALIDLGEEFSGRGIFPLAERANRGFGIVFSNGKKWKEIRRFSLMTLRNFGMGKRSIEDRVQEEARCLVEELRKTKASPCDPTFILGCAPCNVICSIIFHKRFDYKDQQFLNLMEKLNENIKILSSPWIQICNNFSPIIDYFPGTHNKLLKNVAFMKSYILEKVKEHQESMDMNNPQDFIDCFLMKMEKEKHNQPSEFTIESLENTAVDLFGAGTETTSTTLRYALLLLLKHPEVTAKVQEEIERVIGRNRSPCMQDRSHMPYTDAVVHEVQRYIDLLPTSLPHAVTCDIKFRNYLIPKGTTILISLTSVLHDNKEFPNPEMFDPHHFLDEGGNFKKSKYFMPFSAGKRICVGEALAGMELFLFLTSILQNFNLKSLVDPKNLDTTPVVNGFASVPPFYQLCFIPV

[34] = tested on: L5178Y; assay: Mutagenicity against mouse L5178Y cells by mouse lymphoma assay; type: toxicity, cell-based
[35] = Half life in rat at 1 to 3 mg/kg, po; type: ADME, organism-based; design: dose 1-3 mg/kg, route oral; details: in vivo
[36] = Volume of distribution at steady state in rat at 1 to 3 mg/kg; type: ADME, organism-based; design: dose 1-3 mg/kg; details: in vivo, read-out: Vdss
[37] = Volume of distribution at steady state in mouse at 1 to 3 mg/kg; type: ADME, organism-based; design: dose 1-3 mg/kg; details: in vivo, read-out: Vdss
[38] = tested on: Mus musculus; assay: Ex-vivo inhibition of 11betaHSD1 in po dosed C57Bl6J mouse epididymal adipose tissue using [3H]cortisone as substrate after 1 hr by flow scintillation analysis; type: functional, organism-based
[39] = Plasma clearance in rat at 1 to 3 mg/kg; type: ADME, organism-based; design: dose 1-3 mg/kg
[40] = Volume of distribution at steady state in dog at 1 to 3 mg/kg; type: ADME, organism-based, Canis lupus familiaris; design: dose 1-3 mg/kg; details: in vivo, read-out: Vdss
[41] = target: CYP1A2 (Homo sapiens, UniProt P05177); assay: Inhibition of CYP1A2 at 10 uM; type: ADME
[42] = Intrinsic clearance in rat hepatocytes assessed per 10^6 cells
[43] = Metabolic stability in dog hepatocytes assessed as compound remaining; type: ADME, cell-based, Canis lupus familiaris, Hepatocyte
[44] = Fraction unbound in human plasma after 18 to 19 hrs by equilibrium dialysis; type: ADME, cell-free
[45] = species: Cavia porcellus; assay: Toxicity against guinea pig by monophasic action potential assay; type: organism-based; details: in vivo
[46] = tested on: Mus musculus; assay: Ex-vivo inhibition of 11betaHSD1 in C57Bl6J mouse epididymal adipose tissue using [3H]cortisone as substrate at 50 mg/kg, po after 1 hr by flow scintillation analysis; type: functional
[47] = tested on: Liver; assay: Drug uptake in rat liver assessed as covalent binding measured per mg protein at 40 uCi/kg, po at 2 hrs; type: ADME, organism-based; details: in vivo
[48] = target: Mineralocorticoid receptor (Homo sapiens) (UniProt P08235); assay: Activity at mineralocorticoid receptor
Chain of Mineralocorticoid receptor (Homo sapiens) (P08235 whole entry): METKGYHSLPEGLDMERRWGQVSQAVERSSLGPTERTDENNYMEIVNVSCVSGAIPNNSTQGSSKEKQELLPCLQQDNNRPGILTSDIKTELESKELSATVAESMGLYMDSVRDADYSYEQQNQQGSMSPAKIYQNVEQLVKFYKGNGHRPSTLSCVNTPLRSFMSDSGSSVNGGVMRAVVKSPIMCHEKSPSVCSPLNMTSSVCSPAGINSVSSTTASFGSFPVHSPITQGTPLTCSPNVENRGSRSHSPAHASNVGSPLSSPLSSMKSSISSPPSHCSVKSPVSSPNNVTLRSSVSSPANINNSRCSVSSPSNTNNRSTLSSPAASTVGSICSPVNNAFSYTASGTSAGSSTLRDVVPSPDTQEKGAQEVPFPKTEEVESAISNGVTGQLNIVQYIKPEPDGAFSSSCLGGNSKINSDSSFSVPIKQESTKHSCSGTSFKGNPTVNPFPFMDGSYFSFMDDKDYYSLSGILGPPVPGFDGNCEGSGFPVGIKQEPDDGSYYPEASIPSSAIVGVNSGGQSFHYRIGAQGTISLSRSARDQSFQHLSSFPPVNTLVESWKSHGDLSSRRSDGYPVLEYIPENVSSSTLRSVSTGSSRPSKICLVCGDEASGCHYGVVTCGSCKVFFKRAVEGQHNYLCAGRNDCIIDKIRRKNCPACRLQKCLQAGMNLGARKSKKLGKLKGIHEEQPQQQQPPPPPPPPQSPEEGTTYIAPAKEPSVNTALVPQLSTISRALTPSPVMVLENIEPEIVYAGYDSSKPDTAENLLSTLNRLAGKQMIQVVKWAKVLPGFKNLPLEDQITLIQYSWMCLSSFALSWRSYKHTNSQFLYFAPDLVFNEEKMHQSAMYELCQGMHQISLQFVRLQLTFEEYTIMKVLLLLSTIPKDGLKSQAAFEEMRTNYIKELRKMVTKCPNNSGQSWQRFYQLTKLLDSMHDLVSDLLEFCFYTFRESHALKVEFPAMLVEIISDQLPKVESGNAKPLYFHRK

[49] = Half life in dog at 1 to 3 mg/kg, iv; type: ADME, organism-based, Canis lupus familiaris; design: dose 1-3 mg/kg, route intravenous; details: in vivo
[50] = target: 11-beta-hydroxysteroid dehydrogenase type 1 (Canis lupus familiaris, UniProt Q5XX84); assay: Inhibition of N-terminal His6-tagged full length dog 11betaHSD1 expressed in baculovirus infected cells using cortisone as substrate after 25 mins by HTRF assay
[51] = Half life in rat at 1 to 3 mg/kg, iv; type: ADME, organism-based; design: dose 1-3 mg/kg, route intravenous; details: in vivo
[52] = tested on: Hepatocyte; assay: Metabolic stability in rat hepatocytes assessed as compound remaining; type: ADME, cell-based
[53] = target: 17-beta-hydroxysteroid dehydrogenase type 1 (Homo sapiens, UniProt P14061); assay: Inhibition of recombinant 17betaHSD1 using [3H]estrone as substrate after 20 mins by flow scintillation analysis
Chain of 17-beta-hydroxysteroid dehydrogenase type 1 (P14061 whole entry): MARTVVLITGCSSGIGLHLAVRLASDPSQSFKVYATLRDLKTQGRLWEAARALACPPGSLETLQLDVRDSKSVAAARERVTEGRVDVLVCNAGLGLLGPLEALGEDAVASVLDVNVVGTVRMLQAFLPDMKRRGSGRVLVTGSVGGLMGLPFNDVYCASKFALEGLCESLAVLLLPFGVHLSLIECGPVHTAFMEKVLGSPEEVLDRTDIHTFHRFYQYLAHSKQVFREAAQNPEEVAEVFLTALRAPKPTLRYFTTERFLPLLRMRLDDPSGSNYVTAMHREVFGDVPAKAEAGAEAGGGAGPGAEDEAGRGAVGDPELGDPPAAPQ

[54] = target: Gastrin/cholecystokinin type B receptor (Homo sapiens) (UniProt P32239); assay: Activity at CCK2 receptor
Chain of Gastrin/cholecystokinin type B receptor (Homo sapiens) (P32239 whole entry): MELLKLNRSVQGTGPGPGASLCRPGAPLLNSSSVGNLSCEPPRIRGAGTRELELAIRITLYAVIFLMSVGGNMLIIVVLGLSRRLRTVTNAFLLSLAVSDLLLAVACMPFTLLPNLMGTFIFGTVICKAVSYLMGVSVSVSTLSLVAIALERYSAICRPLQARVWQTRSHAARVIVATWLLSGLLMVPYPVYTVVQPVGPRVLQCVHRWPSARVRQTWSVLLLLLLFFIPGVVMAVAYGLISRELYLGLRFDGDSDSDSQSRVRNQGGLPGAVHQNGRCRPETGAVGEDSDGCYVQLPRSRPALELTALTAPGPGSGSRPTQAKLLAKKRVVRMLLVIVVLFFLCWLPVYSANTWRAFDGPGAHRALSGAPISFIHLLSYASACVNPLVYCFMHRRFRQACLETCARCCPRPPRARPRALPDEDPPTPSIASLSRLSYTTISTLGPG

[55] = Fraction unbound in mouse plasma after 18 to 19 hrs by equilibrium dialysis; type: ADME, cell-free

CCCSc1nc(N2CCC[C@@H](CC(=O)O)C2)ccc1C(=O)NC1CCCCC1 [AZD-4017]
bioavailability [1]: > 100% | half-life [2]: 4.2 h | half-life [3]: 3.2 h | IC50 [4]: 0.029 µM | Activity [5]: Active | Drug uptake [6]: Not Active | solubility at 24 h [7]: 144 µM (≈ 60.4 µg/mL) | inhibition at 10 µM [8]: < 25% | IC50 [9]: > 30 µM | Stability [10]: 93% | Papp B→A at 10 µM [11]: 22 ×10⁻⁶ cm/s | clearance [12]: 7 mL/min/kg | inhibition at 10 µM [13]: < 25% | clearance [14]: 9 mL/min/kg | Activity [15]: inactive | half-life [16]: 4.9 h | logD at 0.5 h [17]: 2.2 | clearance [18]: 16 mL/min/kg | IC50 [19]: 4.06 µM | bioavailability [20]: > 100% | fraction unbound [21]: 0.023 | Papp A→B at 10 µM [22]: 29 ×10⁻⁶ cm/s | IC50 [23]: 0.75 µM | bioavailability [24]: > 100% | Activity [25]: Non-toxic | Activity [26]: Non-toxic | IC50 [27]: > 30 µM | Imax [28]: 70% | inhibition at 10 µM [29]: < 25% | bioavailability [30]: 60% | fraction unbound [31]: 0.017 | Drug uptake [32]: Not Active | inhibition at 10 µM [33]: < 25% | Activity [34]: Non-toxic | half-life [35]: 4.7 h | Vd [36]: 2.6 L/kg | Vd [37]: 4.2 L/kg | inhibition [38]: Dose-dependent effect | clearance [39]: 9 mL/min/kg | Vd [40]: 0.9 L/kg | inhibition at 10 µM [41]: < 25% | hepatocyte CLint [42]: < 2 µL/min/1e6 cells | Stability [43]: 34% | fraction unbound [44]: 0.008 | Activity [45]: Non-toxic | inhibition in vivo at 50 mg/kg [46]: 50% | Drug uptake [47]: < 25 pmol | Activity [48]: inactive | half-life [49]: 6.2 h | IC50 [50]: 3.77 µM | half-life [51]: 4.4 h | Stability [52]: 66% | IC50 [53]: > 30 µM | Activity [54]: Active | fraction unbound [55]: 0.029
